Key:
[1] = molecular target: rNaV1.4 (Rattus norvegicus, UniProt P15390, F1579A); experiment: whole-cell patch clamp, three pulse train; format: cell-based
[2] = molecular target: rNaV1.4 (Rattus norvegicus, UniProt P15390); experiment: whole-cell patch clamp, three pulse train; format: cell-based
Chain of rNaV1.4 (Rattus norvegicus, UniProt P15390) (P15390 whole entry): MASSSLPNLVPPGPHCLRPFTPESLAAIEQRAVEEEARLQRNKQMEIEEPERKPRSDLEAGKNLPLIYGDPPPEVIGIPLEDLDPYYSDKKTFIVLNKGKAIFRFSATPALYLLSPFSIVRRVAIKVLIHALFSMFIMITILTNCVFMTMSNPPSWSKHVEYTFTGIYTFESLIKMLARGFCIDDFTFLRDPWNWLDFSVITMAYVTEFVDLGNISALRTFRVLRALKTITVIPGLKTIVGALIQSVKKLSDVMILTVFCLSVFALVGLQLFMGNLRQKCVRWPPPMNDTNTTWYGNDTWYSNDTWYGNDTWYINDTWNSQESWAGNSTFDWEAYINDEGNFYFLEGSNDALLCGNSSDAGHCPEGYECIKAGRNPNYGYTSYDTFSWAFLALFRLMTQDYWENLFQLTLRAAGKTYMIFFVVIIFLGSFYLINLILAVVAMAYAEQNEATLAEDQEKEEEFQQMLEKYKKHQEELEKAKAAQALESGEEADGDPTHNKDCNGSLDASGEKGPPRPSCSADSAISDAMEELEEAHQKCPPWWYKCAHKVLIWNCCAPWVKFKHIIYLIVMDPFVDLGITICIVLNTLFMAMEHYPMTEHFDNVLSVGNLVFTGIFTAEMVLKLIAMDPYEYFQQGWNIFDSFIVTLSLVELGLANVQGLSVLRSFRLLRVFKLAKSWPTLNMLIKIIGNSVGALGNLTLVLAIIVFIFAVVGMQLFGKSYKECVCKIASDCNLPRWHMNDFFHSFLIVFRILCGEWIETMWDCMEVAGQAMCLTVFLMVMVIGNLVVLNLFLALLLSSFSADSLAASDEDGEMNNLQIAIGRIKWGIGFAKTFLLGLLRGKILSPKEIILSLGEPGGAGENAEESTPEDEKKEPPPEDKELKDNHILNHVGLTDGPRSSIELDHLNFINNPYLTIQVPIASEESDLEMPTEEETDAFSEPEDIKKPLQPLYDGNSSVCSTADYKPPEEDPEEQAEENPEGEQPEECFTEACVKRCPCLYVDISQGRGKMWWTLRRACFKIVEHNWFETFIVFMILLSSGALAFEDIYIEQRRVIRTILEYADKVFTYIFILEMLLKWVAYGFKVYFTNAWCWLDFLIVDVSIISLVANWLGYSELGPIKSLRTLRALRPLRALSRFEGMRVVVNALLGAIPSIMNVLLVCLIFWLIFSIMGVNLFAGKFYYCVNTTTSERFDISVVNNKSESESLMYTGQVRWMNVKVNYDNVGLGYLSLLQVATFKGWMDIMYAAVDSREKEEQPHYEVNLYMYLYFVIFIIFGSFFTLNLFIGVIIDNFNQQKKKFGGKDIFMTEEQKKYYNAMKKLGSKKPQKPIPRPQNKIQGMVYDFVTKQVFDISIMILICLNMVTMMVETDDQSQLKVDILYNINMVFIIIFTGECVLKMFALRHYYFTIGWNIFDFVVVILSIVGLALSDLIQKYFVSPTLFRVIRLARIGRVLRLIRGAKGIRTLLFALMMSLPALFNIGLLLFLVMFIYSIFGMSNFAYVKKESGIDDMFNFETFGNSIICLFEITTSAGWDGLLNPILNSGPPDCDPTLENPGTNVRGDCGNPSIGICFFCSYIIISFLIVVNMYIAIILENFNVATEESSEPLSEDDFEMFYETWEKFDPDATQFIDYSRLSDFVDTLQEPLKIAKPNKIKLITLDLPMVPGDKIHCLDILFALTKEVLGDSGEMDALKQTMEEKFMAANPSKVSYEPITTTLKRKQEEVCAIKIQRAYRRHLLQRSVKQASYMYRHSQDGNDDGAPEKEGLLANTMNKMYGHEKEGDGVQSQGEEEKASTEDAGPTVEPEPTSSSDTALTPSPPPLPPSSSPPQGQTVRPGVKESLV

Chain of rNaV1.4 (Rattus norvegicus, UniProt P15390, F1579A) (P15390 whole entry F1579A): as the sequence (P15390 whole entry) above, with F1579A counted along it

## Nc1nc2ccc(OC(F)(F)F)cc2s1 [riluzole]
[1]
  IC50: 114 ± 20 µM
[2]
  IC50: 3.98 ± 1.32 µM

From publication doi:10.1101/2020.05.05.078071v1 (biorxiv, 2020)
